According to patent publication US9937133B2, “Treatment of fibrosis” (UCL BUSINESS PLC, priority 2014, dated 2018):
Read-outs that look alike come from different tables or passages of the source.

Experiments:
Format in all cases: cell-based, human
[1] = tested on: F-PemI and F-PemU fibroblasts; experiment: Matrix contraction by OcMMP fibroblasts after ALDH inhibition
Excerpt: (§1) Next the ability of F-PemI and F-PemU fibroblasts to organise matrix through matrix contraction was investigated. […] This diminished contractile profile was similar in F-PemI and F-PemU fibroblasts.
(§2) To find out whether ALDH1A3 was also contributing to this phenotypic contractility we looked at the contractile profiles of F-PemI, F-PemU and F-C fibroblasts after DEAB or disulfiram ALDH inhibition.

[2] = tested on: F-PemI and F-PemU fibroblasts; experiment: Proliferation of OcMMP fibroblasts after ALDH inhibition
Experimental: The proliferative capacity of F-PemI, F-PemU and F-C fibroblasts was also assessed. […] The proliferative capacities of F-PemI and F-PemU were similar (see FIG. 4A).
To find out whether ALDH1A3 also mediates this anti-proliferative phenotype we monitored the proliferation of F-PemI, F-PemU and F-C fibroblasts after addition of DEAB or disulfiram.

[3] = tested on: F-PemI and F-PemU fibroblasts; experiment: Collagen production of OcMMP fibroblasts after ALDH inhibition (collagen type I competitive ELISA)
Experimental: To investigate whether there was differential matrix production in OcMMP, primary conjunctival fibroblasts explanted from conjunctival tissue samples from OcMMP patients with (F-PemI) and without (F-PemU) and control (F-C) patients were analysed for their matrix production and secretion (see FIG. 2A).
To ascertain whether this enhanced collagen production was mediated by ALDH1A3, the collagen production profiles of F-PemI, F-PemU and F-C fibroblasts were assessed after ALDH inhibition with DEAB or disulfiram (see FIGS. 2B to 2E, where “+” and “−” indicate the presence or absence of DEAB/disulfiram respectively).
A competitive ELISA (MD Bioproducts, Zurich, Germany) method was used to quantify the matrix production from a monolayer of F-C, F-PemU and F-PemI fibroblasts. The competitive assay is a colormetric based immunoassay utilises a biotinylated polyclonal antibody to Collagen Type I and purified human collagen type I as an antigen. […]
Each experiment was carried out per manufacturer's instructions and performed with at least 4 experimental repeats and 3 biological repeats. […] Another method that has been noted for quantifying the level of collagen production in OcMMP fibroblasts is Q-PCR quantification of collagen type 1 mRNA expression post TGF-β induction (Razzaque et al., 2003, Investigative ophthalmology and visual science, 44: 3417-3423, 1616-1621 and 1998-2003). […]

F-C fibroblasts = experiment: Matrix contraction by control fibroblasts after ALDH inhibition
Excerpt: as §1, §2

[4] = tested on: F-PemI and F-PemU fibroblasts; experiment: Alpha-smooth muscle actin alignment under a stressed matrix
Excerpt: Finally to have an indication of the differentiation capacity of F-PemI and F-PemU fibroblasts, their expression and alignment of alpha-smooth muscle actin under a stressed matrix was investigated. F-PemI and F-PemU lack the ability to align their alpha-smooth muscle actin into stress fibers when compared to F-C fibroblasts. The diminished alignment of alpha-smooth muscle actin was similar in both F-PemI and F-PemU fibroblasts.
To elucidate whether ALDH1A3 is contributing to this impaired alignment of alpha-smooth muscle actin in F-PemI and F-PemU fibroblasts, their alpha-smooth muscle actin alignment was imaged after being treated with DEAB and disulfiram.

CCN(CC)c1ccc(C=O)cc1 [DEAB, 4-(diethylamino)benzaldehyde]
contractility of F-PemI and F-PemU fibroblasts ([1]; increasing concentrations): increased the contractility of F-PemI and F-PemU fibroblasts in a dose dependent manner | contraction of F-PemI and F-PemU fibroblasts ([1]; lowest concentration of 10^−7M): control cell levels of contraction | proliferation of F-PemI and F-PemU fibroblasts [2]: proliferating at a significantly enhanced rate | proliferation of F-PemI and F-PemU fibroblasts ([2]; lowest concentration of 10^−7M): proliferated at similar level to F-C fibroblasts | F-PemI and F-PemU fibroblast collagen production ([3]; 10^−7M): brought down to control cell levels | F-PemI and F-PemU fibroblast collagen production ([3]; increasing concentrations): dose dependent and significant decrease | contractile profile of F-C fibroblasts (F-C fibroblasts): did not have any significant effects | alignment of alpha-smooth muscle actin in F-PemI and F-PemU fibroblasts [4]: markedly improved the alignment
